# According to US10383956B2, “Fluorescent probe for detecting dipeptidyl peptidase IV” (The University of Tokyo, priority 2014, dated 2019):
# What was measured:
# [1] = Absorption and fluorescence spectra of probe and HMRG; assay type: physicochemical
# Text: The absorption spectra and fluorescence spectra of compound 1 (GP-HRMG) having a glycine-proline dipeptide site synthesized in Example 1 and hydroxymethyl rhodamine green (HRMG) not having a dipeptide site were each measured.
# [2] = target: DPP-IV (Homo sapiens, UniProt P27487); test: DPP-IV assay by fluorescent probe (absorption/fluorescence change, HPLC); assay type: biochemical
# Protocol: Next, DPP-IV was caused to act on compound 1, and the changes in the absorption spectrum and fluorescence spectrum were measured. The results are shown in FIG. 1 (the concentration of compound 1 was 3.5 μM).
# Similarly, DPP-IV was caused to act on compound 1, and analysis was conducted by HPLC chromatography.
# In addition to compound 1, fluorescence assays were conducted on compounds 2-6 synthesized in the same way in Example 1. For the solution conditions, a solution comprising 18 μL of solution comprising a fluorescent probe concentration of 1.1 μM and 20 mM Tris HCl buffer (pH 7.1), and 2 μL of solution comprising DPP-IV and 20 mM Tris HCl buffer was used. The results obtained by adding DPP-IV to each solution containing a fluorescent probe and measuring the increase in the fluorescence intensity are shown in FIGS. 3 and 4 (excitation wavelength 501 nm, fluorescence wavelength 524 nm). FIG. 3 is a graph snowing the fluorescence intensity increase rate six minutes after DPP-IV addition; FIG. 4 is a graph plotting the time dependence of the fluorescence intensity.
# [3] = test system: human esophageal squamous cell carcinoma cells (KYSE30, KYSE270, KYSE140, KYSE520, KYSE150, KYSE 1170); test: Live cell imaging in cultured esophageal cancer cells; assay type: cell-based; settings: FIG. 5
# Protocol: Imaging was conducted over time after adding GP-HMRG (compound 1) to six types of human esophageal squamous cell carcinoma cells.
# As human esophageal squamous cell carcinoma cells, two highly differentiated types (KYSE30, KYSE270), two moderately differentiated types (KYSE140, KYSE520), and two lowly differentiated types (KYSE150, KYSE 1170) were cultured for two days at 37° C., 5% CO2 using a μ-Slide 8 well.
# [4] = test system: human esophageal cancer surgical specimens and ESD specimens; test: Imaging of human esophageal surgical specimens and ESD specimens; settings: surgical specimen; probe 50 μM with DPP-IV inhibitor, adhered five minutes; FIG. 10
# Protocol: Esophageal specimens from patients who underwent surgery and endoscopic submucosal dissection (ESD) for esophageal cancer were brought immediately after removal in each treatment (meaning surgical specimens and ESD specimens, respectively) to an imaging room, and imaging was conducted over time after spraying the specimens directly with various fluorescent probes (compounds 1-6). For surgical specimens, 10 μL of a DMSO solution (10 mM) of the various fluorescent probes was dissolved in 2 mL of RPMI 1640 (phenol red-free) (final probe concentration 50 μM), and imaging was conducted using a Maestro In Vivo Imaging System Ex after spraying the fluorescent probe on the specimen using a spray tube for an endoscope. For ESD specimens, 3 μL of a DMSO solution (10 mM) of the various fluorescent probes was dissolved in 600 μL of RPMI 1640 (phenol red-free) (final probe concentration 50 μM), and imaging was conducted using a Maestro In Vivo Imaging System Ex after adding the fluorescent probe dropwise to the specimen.
# Specifically, gauze impregnated with 5 μL of a DMSO solution (10 mM) of EP-HMRG (compound 2) dissolved in 1 mL of RPMI 1640 (phenol red-free) (final probe concentration 50 μM) and gauze impregnated with 5 μL of a DMSO solution (10 mM) of EP-HMRG (compound 2) and 5 μL of a DPP-IV inhibitor (10 mM) dissolved in 1 mL of RPMI 1640 (phenol red-free) were used. […]
# Chain of DPP-IV (P27487 whole entry, species assumed): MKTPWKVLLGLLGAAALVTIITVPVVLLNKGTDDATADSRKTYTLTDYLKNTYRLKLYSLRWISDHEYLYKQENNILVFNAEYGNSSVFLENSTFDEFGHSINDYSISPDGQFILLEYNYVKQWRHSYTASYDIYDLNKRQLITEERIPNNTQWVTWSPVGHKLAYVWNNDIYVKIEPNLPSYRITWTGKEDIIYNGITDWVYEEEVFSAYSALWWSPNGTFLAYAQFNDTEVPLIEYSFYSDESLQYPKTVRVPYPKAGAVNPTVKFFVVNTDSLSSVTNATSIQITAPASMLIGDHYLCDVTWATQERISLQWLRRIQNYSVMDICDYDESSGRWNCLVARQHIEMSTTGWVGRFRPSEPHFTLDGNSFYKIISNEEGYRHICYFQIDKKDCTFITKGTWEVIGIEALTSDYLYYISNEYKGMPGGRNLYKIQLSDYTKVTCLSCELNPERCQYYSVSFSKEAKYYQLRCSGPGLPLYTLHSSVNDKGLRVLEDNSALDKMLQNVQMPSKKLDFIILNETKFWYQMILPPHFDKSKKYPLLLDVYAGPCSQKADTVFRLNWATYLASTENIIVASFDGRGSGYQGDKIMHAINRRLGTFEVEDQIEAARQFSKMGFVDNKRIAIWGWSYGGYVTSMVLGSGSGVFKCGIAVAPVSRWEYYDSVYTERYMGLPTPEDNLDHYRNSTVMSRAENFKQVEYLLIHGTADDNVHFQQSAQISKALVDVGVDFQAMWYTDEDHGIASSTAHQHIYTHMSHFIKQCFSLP
compound,measurement,setting,value
NCC(=O)N1CCC[C@H]1C(=O)Nc1ccc2c(c1)Oc1cc(N)ccc1C21OCc2ccccc21 (stereo partly drawn) [Compound 1],Maximum absorption wavelength,[1],496 nm
same,Maximum fluorescence wavelength,[1],527 nm
same,pKcycl,[1],5.0
same,Structure form under neutral conditions,[1]; neutral conditions,"present mainly in a colorless, non-fluorescent, closed-ring structure"
same,Molar extinction coefficient at pH 7.4,[1],300 M^−1cm^−1
same,HPLC analysis after reaction with DPP-IV,[2]; FIG. 2,hydrolyzed and cleaved by DPP-IV
same,Change in absorption and fluorescence spectrum on addition of DPP-IV,"[2]; compound concentration 3.5 μM, FIG. 1",increase in the absorbance and fluorescence intensity
same,Fluorescence intensity in live cells with DPP-IV inhibitor added,"[3]; probe 5 μM + 100 μM DPP-IV inhibitor, 60 minutes",fluorescence intensity was lower with the probe with inhibitor added
same,Fluorescence intensity in live cells over time,"[3]; probe 10 μM, observed 60 minutes, six cell lines",increase in fluorescence intensity was seen over time in all of the cells
Nc1ccc2c(c1)Oc1cc(NC(=O)[C@@H]3CCCN3C(=O)[C@@H](N)CCC(=O)O)ccc1C21OCc2ccccc21 (stereo partly drawn) [Compound 2],Fluorescence intensity in tumor areas with DPP-IV inhibitor,[4],increase in fluorescence intensity was not seen in tumor areas
"hydroxymethyl rhodamine green [HMRG, reference compound]",Fluorescence quantum yield,[1],0.81
same,Maximum absorption wavelength,[1],501 nm
same,Maximum fluorescence wavelength,[1],524 nm
same,pKcycl,[1],8.1
same,Molar extinction coefficient at pH 7.4,[1],"57,000 M^−1cm^−1"
